In patent US20210213081A1, “COMPOSITION FOR PREVENTING, AMELIOREATING, OR TREATING STRESS OR DEPRESSION COMPRISING MEDICINAL HERB EXTRACT AS EFFECTIVE INGREDIENT” (KOREA INSTITUTE OF ORIENTAL MEDICINE, priority 2016, published 2021):

Key:
[1] = test system: C57BL/6 mouse; assay: Sucrose preference test (SPT) in immobility stress model; type: in vivo; conditions: immobility stress 22 days, 20 mg/kg oral daily, FIG. 4
Excerpt: As a test animal, 7-week old male C57BL/6 mouse was used after obtaining it from Samtako Bio Korea. The test animals were acclimated for 7 days in the test animal research center, which is a specific pathogen-free facility of Korea Institute of Oriental Medicine. They were divided into the followings 6 groups in total: normal group not exposed to any stress (Control, n=16), stress control group applied with the stress only (Vehicle, n=16), positive control group applied with the stress and commercially available anti-depressant (Fluoxetine, n=16), and test groups applied with the stress and extract of Hibiscus syriacus root (100, 200, or 400 mg/kg, n=16). The test methods were reviewed by Test animal ethics committee of Korea Institute of Oriental Medicine (approval number: 15-102), and as for the breeding and maintenance of the test animals, the animals were placed in an IVC (individually ventilated cage) (5 animals per cage), which has been constantly maintained at temperature of 23±1° C., humidity of 50±10% or so, and light/dark period of 12 hours, based on the regulations for management and use of animals by the Test Animal Research Center of Korea Institute of Oriental Medicine. […]
The sucrose preference test was carried out on Day 1 of the test and after completion of the test. […] The intake preference was calculated as follows.

[2] = test system: C57BL/6 mouse; assay: Forced swimming test (FST) in immobility stress model; type: in vivo; conditions: immobility stress 22 days, 20 mg/kg oral daily, FIG. 5
Excerpt: (§1) As a test animal, 7-week old male C57BL/6 mouse was used after obtaining it from Samtako Bio Korea. The test animals were acclimated for 7 days in the test animal research center, which is a specific pathogen-free facility of Korea Institute of Oriental Medicine. They were divided into the followings 6 groups in total: normal group not exposed to any stress (Control, n=16), stress control group applied with the stress only (Vehicle, n=16), positive control group applied with the stress and commercially available anti-depressant (Fluoxetine, n=16), and test groups applied with the stress and extract of Hibiscus syriacus root (100, 200, or 400 mg/kg, n=16). […]
To measure the anti-depression effect of an extract of Hibiscus syriacus root, the forced swimming test was carried out, after the completion of the immobility stress test, by using the method of Porsolt, et. al. ([…]). […] Of total 6 minutes, the measurement was not carried out for initial 2 minutes as an acclimation period, while the immobile time of the test animal was measured for the last 4 minutes. […]

[3] = test system: C57BL/6 mouse; assay: Tail suspension test (TST) in immobility stress model; type: in vivo; conditions: immobility stress 22 days, 20 mg/kg oral daily, FIG. 6
Excerpt: as §1
The method by Can and others was used for the tail suspension test. […] Of total 6 minutes, the measurement was not carried out for initial 2 minutes as an acclimation period, while the immobile time of the test animal was measured for the last 4 minutes. […]

[4] = test system: cortisol; assay: Blood cortisol measurement after immobility stress (competitive enzyme immunoassay); type: in vivo; conditions: mouse blood serum, immobility stress 22 days, 20 mg/kg oral daily, FIG. 7
Excerpt: as §1
Upon the completion of the test, the test animal was anesthetized, and blood was collected from the heart and centrifuged (1,000×g, 15 minutes) to obtain blood serum. […] Then, the absorbance at 405 nm was measured by using Micro Spectrophotometer (Molecular Device, Sunnyvale, Calif., USA).

[5] = test system: serotonin; assay: Blood serotonin measurement after immobility stress (competitive enzyme immunoassay); type: in vivo; conditions: mouse blood serum, immobility stress 22 days, 20 mg/kg oral daily, FIG. 8
Excerpt: as §1
Upon the completion of the test, the test animal was anesthetized, and blood was collected from the heart and centrifuged (1,000×g, 15 minutes) to obtain blood serum. […] After adding the stop solution (50 μl), the absorbance at 405 nm was measured by using Micro Spectrophotometer (Molecular Device, Sunnyvale, Calif., USA).

[6] = test system: SK-N-SH cells; assay: Activity of protecting nerve cells against corticosterone toxicity, MTS assay (cell proliferation); type: cell-based, human; conditions: 0.25 mM corticosterone for 1 hour, versus normal group
Procedure: SK-N-SH cells as human neuroblastoma cell line were obtained from Korean Cell Line Bank, cultured in DMEM (Dulbecco's modified Eagle's medium) medium containing 10% bovine serum and 1% penicillin/streptomycin (37° C., 5% CO2 incubator), and used. Once a cell monolayer is formed, the cells were treated with TrypLE 1× solution to release the cells followed by subculture.
Furthermore, based on the toxicity of corticosterone, the activity of protecting nerve cells in human blastoma was examined. Specifically, on a Corning BioCoat collagen I 96-well plate, SK-N-SH cells were sewn at 3×10^4/well. Thereafter, the cells were pre-treated for 24 hours with an extract of Hibiscus syriacus flower or Hibiscus syriacus root at a concentration of 10, 50, 100, or 200 μg/ml followed by a treatment with 0.25 mM corticosterone for 1 hour to induce oxidative stress. Then, MTS assay was carried out and, by measuring the absorbance using ELISA (enzyme-linked immunosorbent assay) plate reader, the cell proliferation was determined.
As a positive control, a treatment with 10 μM fluoxetine (Sigma, St. Louis, Mo., USA) was carried out instead of the treatment with an extract of Hibiscus syriacus flower or Hibiscus syriacus root.

With `CNCCC(Oc1ccc(C(F)(F)F)cc1)c1ccccc1` (stereo not drawn) [Fluoxetine, fluoxetine] the “sucrose intake amount compared to stress control group (Vehicle)” value [1] was “increased in significant sense”, the “immobile time in forced swimming test compared to control group (Vehicle)” value [2] was “decreased in significant sense” and the “immobile time in tail suspension test compared to control group (Vehicle)” value [3] was “decreased”. The “cortisol production in blood compared to control group (Vehicle)” value [4] was “decreased in significant sense” and the “serotonin production in blood compared to control group (Vehicle)” value [5] was “increased in significant sense”.

In the case of `C[C@]12C[C@H](O)[C@H]3[C@@H](CCC4=CC(=O)CC[C@@]43C)[C@@H]1CC[C@@H]2C(=O)CO` [corticosterone], the “cells diminished by treatment with corticosterone” value [6] is reported as about 50%.
